The target in this test is α-glucosidase from Saccharomyces cerevisiae (Saccharomyces cerevisiae, UniProt P53341). The experiment in a line: α-glucosidase inhibition assay (pNPG substrate). Type of test: biochemical. The note with it: yeast α-glucosidase; acarbose as positive control. Here is the method:
The α-glucosidase inhibition assay was performed according to a slightly modified, previously reported method; α-Glucosidase (0.1 U/mL) was dissolved in potassium phosphate buffer (pH 6.8) as the enzyme solution. The tested compounds (50 μL, 5 mM) dissolved in potassium phosphate buffer containing 3% DMSO were mixed with 50 μL of enzyme solution. After incubation at 37 °C for 10 min, a p-nitrophenyl-α-glucopyranoside (pNPG) solution (100 μL) (5.0 mM pNPG in 0.1 M potassium phosphate buffer (pH 6.8)) was added. The enzymatic reaction proceeded at 37 °C for 20 min and was terminated by the addition of 100 μL of 0.2 M Na2CO3. 4-nitrophenol absorption was immediately measured at 405 nm by using a microplate reader. The experiments were performed in triplicate.

Entries after “also recorded” stand apart in the source; their conditions may differ.

α-glucosidase from Saccharomyces cerevisiae, sequence (P53341 whole entry): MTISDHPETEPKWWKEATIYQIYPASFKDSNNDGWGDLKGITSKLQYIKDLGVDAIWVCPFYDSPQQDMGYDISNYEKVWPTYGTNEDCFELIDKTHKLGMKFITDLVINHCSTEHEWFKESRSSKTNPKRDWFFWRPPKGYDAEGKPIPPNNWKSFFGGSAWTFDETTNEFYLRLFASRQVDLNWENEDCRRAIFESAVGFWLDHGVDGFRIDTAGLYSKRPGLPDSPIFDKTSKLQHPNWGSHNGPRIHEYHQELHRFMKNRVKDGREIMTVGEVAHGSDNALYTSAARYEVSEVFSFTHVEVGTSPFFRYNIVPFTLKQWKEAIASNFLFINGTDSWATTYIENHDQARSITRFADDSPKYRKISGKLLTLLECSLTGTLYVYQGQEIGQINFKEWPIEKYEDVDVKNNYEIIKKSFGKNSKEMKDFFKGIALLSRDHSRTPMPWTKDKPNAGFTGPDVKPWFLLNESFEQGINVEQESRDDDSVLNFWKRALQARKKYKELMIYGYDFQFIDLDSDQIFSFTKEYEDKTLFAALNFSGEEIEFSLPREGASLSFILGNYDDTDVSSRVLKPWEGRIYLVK

With `CC(=O)O[C@@]1(C)C[C@@H](OC(=O)C2=CO[C@@H](O[C@@H]3O[C@H](CO)[C@@H](O)[C@H](O)[C@H]3OC(=O)/C=C\c3ccc(O)cc3)[C@@H]3[C@H](C)CC[C@H]23)[C@@H]2C=CO[C@@H](O[C@@H]3O[C@H](CO)[C@@H](O)[C@H](O)[C@H]3O)[C@@H]21` [Compound 4, 2′′′-O-(Z)-p-coumaroyl caryocanoside B], the “α-glucosidase inhibitory effect (in words)” value was “stronger inhibitory effects against α-glucosidase than the positive control; also recorded: potent effect”.

Consider `CC(CO)c1cc2c(c(O)c1O[C@@H]1O[C@H](CO)[C@@H](O)[C@H](O)[C@H]1O)[C@@]1(C)CCC[C@](C)(CO[C@@H]3O[C@H](CO)[C@@H](O)[C@H](O)[C@H]3O)[C@@H]1CC2` (some centres unmarked) [Compound 10, ajugaside A], for which the “α-glucosidase inhibitory effect (in words)” value is recorded as “stronger inhibitory effects against α-glucosidase than the positive control”.
